Experimental findings from patent publication EP0288176A1, “Tyrosine derivatives and use thereof” (AJINOMOTO CO., INC., priority 1987, dated 1988) are described below.

A short description of series [1]: Toxicity: LD50 in mice, perorally administered. To be noted: mouse, in vivo, po, read-out: LD₅₀. The source says:
Toxicity of O-alkyl tyrosine derivatives is low; each of LD₅₀ in mice perorally administered of O-methyl-N-(4-methylcinnamoyl)-L-tyrosine (S-1), O-methyl-N-(α-fluoro-4-methylcinnamoyl)-L-tyrosine (S-5), O-methyl-N-(β-chloro-4-methylcinnamoyl)-L-tyrosine (S-9) is 3.0 g/kg or higher.

Series [2] is described as follows: Activity test: peroral administration with insulin, blood glucose decrease and blood insulin increase. It counts as in vivo, female mice of ICR-CD-1 strain. On the set-up: key to percent decrease in blood sugar (%): The symbol + means that there was no decrease in blood sugar; key to degree of increase of blood insulin: the symbol - means that there was no increase in blood insulin. The following applies: 0.5 U insulin/10 g bodyweight and 3 mg compound/10 g bodyweight, compared with control group. Here is the method: The absorption promoting agents according to the present invention shown in Table 1 were suspended in 0.5% CMC - 0.05 M trisHCl buffer (pH 7.8), and mixed with insulin. The resultant mixture was administered perorally to female mice of ICR-CD-1 strain (aged 5 to 7 weeks) at 0.5 U insulin/10 g bodyweight and 3 mg of the above compound/10 g bodyweight. The percent decrease of blood glucose(%) and the degree of increase of blood insulin after predetermined periods of time were compared with those of the control group, and the results are shown in Table 2.
In the Table, the figures given in the upper rows denote 1) percent of decrease in blood glucose(%) and those in the lower rows in parentheses denote 2) degree of increase in blood insulin level. The symbol + means that there was no decrease in blood sugar and the symbol - means that there was no increase in blood insulin.

Where only a bound is given, the exact number is not on record here.

For the compound `COc1ccc(C[C@H](NC(=O)C=Cc2ccc(C)cc2)C(=O)O)cc1` [Compound S-1, O-methyl-N-(4-methylcinnamoyl)-L-tyrosine], the LD50 in series [1] is not below 3000 mg/kg.
Consider `CCOc1ccc(C[C@H](NC(=O)C=Cc2ccc(C)cc2)C(=O)O)cc1` [Compound S-2, O-ethyl-N-(4-methylcinnamoyl)-L-tyrosine], for which, in series [2] (30 min.), the “degree of increase of blood insulin” value is listed as “-” and the “percent decrease in blood sugar (%)” value is reported as “+”.
With `COc1ccc(C[C@H](NC(=O)C(F)=Cc2ccccc2)C(=O)O)cc1` [Compound S-4, O-methyl-N-(α-fluorocinnamoyl)-L-tyrosine], the “percent decrease in blood sugar (%)” value in series [2] (60 min.) is recorded as “+”.
Regarding `COc1ccc(C[C@H](NC(=O)C(F)=Cc2ccc(C)cc2)C(=O)O)cc1` [Compound S-5, O-methyl-N-(α-fluoro-4-methycinnamoyl)-L-tyrosine], the LD50 in series [1] was not below 3000 mg/kg. Further, the “percent decrease in blood sugar (%)” value in series [2] (60 min.) is “+”.
On to `CCOc1ccc(C[C@H](NC(=O)C(F)=Cc2ccc(C)cc2)C(=O)O)cc1` [Compound S-6, O-ethyl-N-(α-fluroro-4-methylcinnamoyl)-L-tyrosine], for which the “degree of increase of blood insulin” value in series [2] (15 min.) is reported as 5.3; in series [2] (30 min.) it was “-”; in series [2] (60 min.) it was “-”. The entries for the “percent decrease in blood sugar (%)” value in series [2] (15 min.), in series [2] (30 min.) and in series [2] (60 min.) were 29.1%, “+” and “+”, respectively.
Consider `COc1ccc(C[C@H](NC(=O)C(Cl)=Cc2ccc(C)cc2)C(=O)O)cc1` [Compound S-7, O-methyl-N-(α-chloro-4-methylcinnamoyl)-L-tyrosine], for which the “percent decrease in blood sugar (%)” value in series [2] (15 min.) was 28.6%; in series [2] (30 min.), “+”; in series [2] (60 min.) it was “+”.
Take `COc1ccc(C[C@@H](NC(=O)C(Cl)=Cc2ccc(C)cc2)C(=O)O)cc1` [Compound S-8, O-methyl-N-(α-chloro-4-methylcinnamoyl)-D-tyrosine]: the “percent decrease in blood sugar (%)” value in series [2] (60 min.) is listed as “+”.
With `COc1ccc(C[C@H](NC(=O)C=C(Cl)c2ccc(C)cc2)C(=O)O)cc1` [Compound S-9, O-methyl-N-(β-chloro-4-methylcinnamoyl)-L-tyrosine], in series [1], the LD50 is not below 3000 mg/kg. The “degree of increase of blood insulin” value in series [2] (60 min.) was “-”.
With `COc1ccc(C[C@@H](NC(=O)C=C(Cl)c2ccc(C)cc2)C(=O)O)cc1` [Compound S-10, O-methyl-N-(β-chloro-4-methylcinnamoyl)-D-tyrosine], the “percent decrease in blood sugar (%)” value in series [2] (60 min.) was “+”.
